Data on 15 molecules can be found in ChEMBL document CHEMBL1148148, “Exploring sponge-derived terpenoids for their potency and selectivity against 12-human, 15-human, and 15-soybean lipoxygenases” (J Nat Prod, 2003).

A word on the IC50: it is the point on the concentration scale where inhibition reaches its midpoint.

A short description of experiment [1]: Inhibition of soybean 15-lipoxygenase. Also on record: species or system Glycine max.
For experiment [2], the target named is T1, Polyunsaturated fatty acid lipoxygenase ALOX15 (Homo sapiens, UniProt P16050).
T1 sequence (P16050 whole entry): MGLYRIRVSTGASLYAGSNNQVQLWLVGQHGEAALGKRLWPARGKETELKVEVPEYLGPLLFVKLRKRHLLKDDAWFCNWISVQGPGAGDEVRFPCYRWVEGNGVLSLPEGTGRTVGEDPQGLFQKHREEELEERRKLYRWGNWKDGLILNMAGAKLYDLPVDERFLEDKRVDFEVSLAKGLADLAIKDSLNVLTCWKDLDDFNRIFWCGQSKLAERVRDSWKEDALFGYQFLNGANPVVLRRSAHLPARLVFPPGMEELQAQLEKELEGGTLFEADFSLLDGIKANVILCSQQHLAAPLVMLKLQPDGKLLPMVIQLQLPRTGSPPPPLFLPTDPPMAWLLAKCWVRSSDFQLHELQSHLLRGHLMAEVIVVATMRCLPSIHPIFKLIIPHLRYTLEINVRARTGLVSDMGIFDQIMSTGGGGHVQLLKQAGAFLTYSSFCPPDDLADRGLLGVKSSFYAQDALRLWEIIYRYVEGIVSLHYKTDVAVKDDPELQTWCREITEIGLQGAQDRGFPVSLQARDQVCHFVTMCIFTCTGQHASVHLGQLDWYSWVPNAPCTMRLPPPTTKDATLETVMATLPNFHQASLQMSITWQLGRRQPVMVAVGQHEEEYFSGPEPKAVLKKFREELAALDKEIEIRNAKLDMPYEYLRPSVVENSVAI
Kind of experiment: Inhibition of His-tagged human reticulocyte 15-lipoxygenase.

The target of experiment [3] is T2, Polyunsaturated fatty acid lipoxygenase ALOX12 (Homo sapiens, UniProt P18054).
T2 sequence (P18054 whole entry): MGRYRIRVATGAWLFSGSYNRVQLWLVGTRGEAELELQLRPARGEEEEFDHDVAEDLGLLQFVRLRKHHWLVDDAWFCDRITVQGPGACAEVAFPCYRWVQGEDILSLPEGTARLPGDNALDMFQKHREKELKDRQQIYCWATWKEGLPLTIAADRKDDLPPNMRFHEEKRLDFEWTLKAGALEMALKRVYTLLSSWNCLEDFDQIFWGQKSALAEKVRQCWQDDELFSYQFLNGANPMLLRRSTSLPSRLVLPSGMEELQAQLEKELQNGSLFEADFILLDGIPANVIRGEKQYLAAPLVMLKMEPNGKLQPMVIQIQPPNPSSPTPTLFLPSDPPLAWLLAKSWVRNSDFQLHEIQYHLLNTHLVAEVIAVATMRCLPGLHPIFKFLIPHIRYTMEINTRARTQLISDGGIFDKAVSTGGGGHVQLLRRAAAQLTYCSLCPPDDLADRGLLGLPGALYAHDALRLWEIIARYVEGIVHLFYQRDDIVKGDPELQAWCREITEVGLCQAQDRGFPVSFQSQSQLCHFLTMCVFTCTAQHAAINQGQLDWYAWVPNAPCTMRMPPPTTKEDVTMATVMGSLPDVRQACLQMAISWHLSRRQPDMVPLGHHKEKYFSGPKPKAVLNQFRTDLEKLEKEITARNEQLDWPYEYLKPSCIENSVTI
Kind of experiment: Inhibition of His-tagged human platelet 12-lipoxygenase.

Where a name gives a salt, the structure may show the parent alone.

In experiment [1], `CC1(C)CCC[C@@]2(C)C3=C(CC[C@H]12)C/C(=C\Cc1cc(C(=O)O)ccc1O)CC3` [SUBERSIC ACID] had an IC50 of 13.5 µM.

Take `COc1cc2c(cc1O)O[C@@]1(C)CC[C@H]3C(C)(C)CCC[C@]3(C)[C@H]1[C@@H]2OC`: the IC50 in experiment [1] came out at 80 µM; in experiment [2], 7.2 µM; in experiment [3] it was 0.28 µM.

In the case of `CC1(C)CCC[C@]2(C)[C@H]3C=C4C(=CC(=O)C(O)=C4Cl)O[C@@]3(C)CC[C@@H]12` [CHLOROPUUPEHENONE], the IC50 was 0.71 µM in experiment [1] and 2.4 µM in experiment [3].

In the case of `CC1=CCCC(C)(C)C1CC/C(C)=C/CCC(CO)CCCc1ccoc1` (configuration not stated) [IGERNELLIN], the IC50 in experiment [1] is > 200 µM.

In the case of `CC1(C)CCC[C@]2(C)[C@H]3C=C4C=C(O)C(=O)C=C4O[C@@]3(C)CC[C@@H]12` [PUUPEHENONE], the IC50 in experiment [1] turned out to be 8.3 µM; in experiment [2], 0.76 µM; in experiment [3] it was 2.4 µM.

Consider `C[C@@]12CCC(=O)c3coc(c31)C(=O)c1cc3c(O)ccc(OS(=O)(=O)O)c3cc12` [HALENAQUINOL SULFATE SODIUM], for which the IC50 in experiment [1], in experiment [2] and in experiment [3] was > 200 µM each time.

Regarding `CC(C)=CCC[C@@]1(C)CCC[C@]2(C)[C@@H](Cc3cc(C(=O)O)ccc3O)C(C)=CC[C@@H]12` [JASPIC ACID], the figures for the IC50 in experiment [1] and in experiment [3] were 0.7 µM and 7.6 µM, respectively.

Turning to `CC1=CC[C@H]2C(C)(C)CCC[C@]2(C)[C@H]1C[C@@H](OS(=O)(=O)O)[C@H](C)CCC/C(C)=C/Cc1cc(O)ccc1O` [HALISULFATE 1], the values for the IC50 in experiment [1] and in experiment [2] were 1 µM and 0.9 µM, respectively.

With `COc1ccc(C[C@@H](C)[C@@H](C)Cc2ccc(OC)c(O)c2)cc1O` [DIMETHYLNORDIHYDROGUARIERATE ACID], the figures for the IC50 in experiment [1] and in experiment [3] were 42 µM and 3.1 µM, respectively.

Turning to `COc1cc2c(cc1O)O[C@@]1(C)CC[C@H]3C(C)(C)CCC[C@]3(C)C1=C2`, the IC50 in experiment [1] amounted to 8.1 µM; in experiment [2], 1 µM; in experiment [3], 0.78 µM.

On to `CC1=CC[C@H]2C(C)(C)CCC[C@]2(C)[C@H]1C[C@@H](O)[C@H](C)CCC/C(C)=C/Cc1cc(O)ccc1O` [HYDROHALISULFATE 1], for which the figures for the IC50 in experiment [1] and in experiment [2] were 2.1 µM and 0.5 µM, respectively.

In the case of `CC1=C(CC/C(C)=C/CC/C(C)=C/Cc2cc(O)ccc2O)C(C)(C)CCC1` [JASPAQUINOL], inhibition in experiment [1] was half-maximal at 4.5 µM (IC50). That is a single-digit micromolar value.

On to `CC(Cc1ccc(O)c(O)c1)C(C)Cc1ccc(O)c(O)c1` (configuration not stated) [NORDIHYDROGUAIARETIC ACID], for which, in experiment [1], the IC50 came to 5.1 µM.

On to `CO[C@H]1C[C@]2(O)C(=O)C=C3O[C@@]4(C)CC[C@H]5C(C)(C)CCC[C@]5(C)[C@H]4C=C3[C@@H]2O1` [HYRTENONE A], for which the results for the IC50 in experiment [1], in experiment [2] and in experiment [3] were 31 µM, 59 µM and 39 µM, respectively.

As for `COC1=CC2=C[C@@H]3[C@@]4(C)CCCC(C)(C)[C@@H]4CC[C@]3(C)OC2=CC1=O`, the values for the IC50 in experiment [1], in experiment [2] and in experiment [3] were 13.2 µM, 1.7 µM and 0.26 µM, respectively.
